Laboratory results as given in US20240376080A1, “COMPOUND AS TYK2/JAK1 PSEUDOKINASE DOMAIN INHIBITOR, AND SYNTHESIS AND USE METHODS” (ZHEJIANG WENDA PHARMACEUTICAL TECHNOLOGY CO., LTD., priority 2021, published 2024).

Columns and labels:
TYK2 (JH1) = TYK2 (JH1) (Homo sapiens (Human), UniProt P29597); experiment: Kinase (JH1) experiment, TYK2; format: biochemical; settings: kinase domain
Description: 1.2. Kinase (JH1) Experiment Operation was as Follows:
1.2.1. Dissolve the compound with DMSO to a storage concentration of 10 mM.
1.2.2. Prepare a compound with a concentration of 100 times the final concentration in a compound dilution plate by diluting it from the highest concentration point for a total of 4 concentration points using a 27 times dilution method, and transfer it to the Echo plate.
1.2.3. Use an Echo instrument to pulse the compound from the Echo plate to a 384 experimental plate, thereby obtain the compound with 11 concentration points of the 3-fold dilution matrix.
1.2.4. Configure a 2× kinase working solution and add it to a 384-well experimental plate at 5 uL per well. Incubate the compound and the kinase at room temperature for 15 minutes.
1.2.5. Add 5 ul 2× substrate (containing ATP) to the 384 well plate.
1.2.6. Incubate at room temperature for 45 minutes.
1.2.7. Add the detection reagent mixture to the 384-well plate, centrifuge for 30 seconds, and incubate at room temperature for 60 minutes.
1.2.8. Read the signal values using Envision Microplate Reader (PerkinElmer).
1.3.1. Use XL-Fit software for data analysis to obtain IC50 of the compounds, see Table 2 for results.

[1] = test system: IFN-α/pSTAT5 in CD3+ cells (human PBMC); experiment: Inhibitory effect on expression of pSTAT5 in CD3+ cells using FACS detection (IFN-α stimulated); format: cell-based; settings: IFN-α 30 ng/ml
Description: Test Example 1: The Inhibitory Effect of Compounds on the Expression of pSTAT5 in CD3+Cells Using FACS Detection
• DMSO, Sigma, Cat #D2650-100 mL, stored at room temperature. • Perm buffer III, BD Biosciences, Cat #558050, stored at 4° C. • Lyse/Fix buffer, BD Biosciences, Cat #558049, stored at room temperature. • EDTA, Invitrogen, Cat #15575-038, stored at room temperature. • PBS, Hyclone, Cat #SH30256.01, stored at 4° C. • PE Mouse Anti-Human CD3, BD Biosciences, Cat #555333, stored at 4° C. • Mouse anti-human Phosphorylation-STAT5 (pY694) (Alexa Fluor® 647 Conjugate), BD Biosciences, Cat #562076, stored at 4° C. • IFN-α, Biolegend, Cat #592702
1) On the day of experiment, the compound was prepared into a 10 mM solution with DMSO, diluted to 1.5 mM in DMSO, and then diluted to 8 gradient concentrations in 3-fold dilutions.
2) 5 μL of the diluted compound was transferred into 120 ul of DPBS solution containing 0.1% BSA.
3) Positive and negative control groups were set up, with the addition of 0.2% DMSO to the positive and negative control groups.
1) Add 0.5 million and 67.5 uL of human PBMC cells to each well of the 96-well cell culture plate.
2) Add 3.5 uL of diluted compound and mix well.
3) Incubate in a 37° C. incubator for 60 minutes.
4) Dilute IFN-alpha in DPBS containing 0.1% BSA to 600 ng/mL, and dilute PE-anti-hCD3 antibody in DPBS containing 0.1% BSA to 3 fold. After the above incubation for 60-minute, add diluted PE-anti-hCD3 antibody at 5 uL per well and add diluted IFN-α at 4 uL per well, i.e., the final concentration of IFN-α per well was 30 ng/ml.
5) Incubate in a 37° C. incubator for 30 minutes.
6) Transfer all cells to a 96-well deep well plate and add 1 mL of 37° C. preheated lysis/fix buffer.
7) Incubate at 37° C. in dark for 10 minutes.
8) Centrifuge at 600 g for 5 minutes and then discard the supernatant. Wash by adding 1 mL of PBS for twice and centrifuge.
9) Add 1 mL of Perm buffer III to the cell precipitation.
10) Incubate at 4° C. in dark for 30 minutes.
11) Centrifuge at 600 g for 5 minutes and then discard the supernatant. Wash by adding 1 mL of PBS for twice and centrifuge.
12) Dilute APC anti-human pSTAT5 antibody in staining buffer for 200 fold, and add it to cell well at 100 uL per well and mix well.
13) Incubate at room temperature for 40 minutes.
14) Wash twice by adding staining buffer with 1 mL for each well, and centrifuge at 600 g for 5 minutes.
15) Discard the supernatant, and re-suspend the cell precipitation in 300 uL of staining buffer.
16) Sample and analyze in a flow cytometer to obtain the IC50 of the samples to be tested, Table 1.

TYK2 (JH1), sequence (P29597 897-1176): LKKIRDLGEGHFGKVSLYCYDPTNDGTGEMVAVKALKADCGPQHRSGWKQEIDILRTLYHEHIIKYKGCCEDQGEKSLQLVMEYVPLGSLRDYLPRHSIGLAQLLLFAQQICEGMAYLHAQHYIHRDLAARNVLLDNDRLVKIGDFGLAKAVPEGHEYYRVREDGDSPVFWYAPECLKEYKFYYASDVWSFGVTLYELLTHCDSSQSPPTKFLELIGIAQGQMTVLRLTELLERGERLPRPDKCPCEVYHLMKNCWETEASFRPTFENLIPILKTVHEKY

[2H]C([2H])([2H])NC(=O)c1nnc(NC(=O)[C@H]2CC23CC3)cc1Nc1cccc(-c2ncn(C)n2)c1OC [Compound 1S]
IC50 (TYK2 (JH1)): > 9950 nM
IC50 [1]: 4.2 nM

[2H]C([2H])([2H])NC(=O)c1nnc(NC(=O)[C@H]2CC23CC3)cc1Nc1nccc(-c2ncn(C)n2)c1OC [Compound 2S]
IC50 (TYK2 (JH1)): > 9950 nM
IC50 [1]: 3.9 nM

[2H]C([2H])([2H])NC(=O)c1nnc(NC(=O)[C@H]2CC23CC3)cc1Nc1cccc(-c2noc(COC)n2)c1OC [Compound 3S]
IC50 [1]: 22.8 nM

[2H]C([2H])([2H])NC(=O)c1nnc(NC(=O)[C@@H]2CC23CC3)cc1Nc1nccc(-c2ncn(C)n2)c1OC [Compound 2R]
IC50 (TYK2 (JH1)): > 9950 nM
IC50 [1]: 5.7 nM

[2H]C([2H])([2H])NC(=O)c1nnc(NC(=O)[C@@H]2CC23CC3)cc1Nc1cccc(-c2ncn(C)n2)c1OC [Compound 1R]
IC50 (TYK2 (JH1)): > 9950 nM
IC50 [1]: 6.3 nM

[2H]C([2H])([2H])NC(=O)c1nnc(NC(=O)C2CC23CC3)cc1Nc1nccc(-c2noc(COC)n2)c1OC (centres unmarked) [Compound 5]
IC50 [1]: 13 nM

[2H]C([2H])([2H])NC(=O)c1cnc(NC(=O)[C@@H]2CC23CC3)cc1Nc1cccc(-c2ncn(C)n2)c1OC [Compound 4R]
IC50 (TYK2 (JH1)): > 9950 nM
IC50 [1]: 5.3 nM

[2H]C([2H])([2H])NC(=O)c1cnc(NC(=O)[C@H]2CC23CC3)cc1Nc1cccc(-c2ncn(C)n2)c1OC [Compound 4S]
IC50 (TYK2 (JH1)): > 9950 nM
IC50 [1]: 4.1 nM
